Test results as given in ChEMBL document CHEMBL1128302, “Synthesis, absolute configuration, and enantioselectivity of antiretroviral effect of (R)-(-)- and (S)-(+)-cytallene. Lipase-catalyzed enantioselective acylations of (+/-)-N4-acylcytallenes” (J Med Chem, 1995).

Experiment: Inhibitory activity against HIV-1 replication in phytohemagglutininin-activated peripheral blood mononuclear (PHA-PBM) cells
Type: functional, Homo sapiens

Structure (SMILES) | IC50 [nM] | IC90 [nM] | IC90 (Homo sapiens) [nM]
Nc1ccn(C=C=CCO)c(=O)n1 (stereo in doubt; 1b) | 800 | 3400 | 
Nc1ccn(C=C=CCO)c(=O)n1 (stereo in doubt; 2b) | 400 |  | 1700
Nc1ccn(C=C=CCO)c(=O)n1 (stereo in doubt; 3c) | > 10000 |  | 
